Measured values published in patent US11807650B2, “NMDA receptor modulators and uses thereof” (Novartis AG, priority 2016, dated 2023).

Key:
[1] = target: T1, human GRIN1 (variant NR1-3) and GRIN2D expressed in HEK293 cells (Homo sapiens, UniProt O15399); experiment: GluN2D PAM CIQ fluorescence assay (Fluo-8 calcium, FDSS 6000); assay type: cell-based; details: relative to CIQ (100 uM) = 100%, read-out: NR2D Percent CIQ Avg Max Measured Effect
T1 construct: GenScript (GRIN2D synthesis) SC115601; host or cells: HEK293
Method: GluN2D PAM CIO Flourescence AssayHEK293 cells were transfected to express human GRIN1 (variant NR1-3, Origene, SKU #: SC115601, Rockville, Md.) and GRIN2D (NCBI locus NM_000836, sequence optimized and synthesized by GenScript) and grown as an adherent monolayer at 37° C., 5% CO2 in DMEM/Ham's F12+10% FBS (Hyclone SH3007.03T in the presence of 2.5 mM ARL-15896 (AdooQ Bioscience, Irvine Calif.). To prepare the cells for an experiment, they were rinsed with Dulbecco's PBS (Ca^2+ and Mg^2+ free) and detached from the flask with TrypLE™ Express (Life Technologies, Carlsbad, Calif.) using the manufacturer's recommended methods. Cells collected from the flask were washed twice in Ca^2+/Mg^2+-free Hanks Balanced Salt Solution+20 mM HEPES (HBSS), and counted and assessed for viability with trypan blue. Washed cells were then dye-loaded by resuspending in Fluo-8/AM calcium sensitive dye plus Component B (AAT Bioquest, Sunnyvale, Calif.) diluted in HBSS. To allow cells to take up fluo-8 dye, they were incubated in the dark for 15 min at 37° C., followed by 30 min at 22-25° C. After dye-loading, cells were washed and resuspended in HBSS and plated in 384-well plates (Falcon 353962; Corning, Big Flats, N.Y.) at 20,000-30,000 cells/well in a final volume of 25 μl/well. The cell plates were centrifuged at 200×g, for 2 minutes at 21° C., to create a monolayer of cells at the bottom of the wells.
To initiate an assay, 10 μl of test compound or buffer was added to each well of the cell plate and pre-incubated for 10 minutes in the dark. After 10 minutes, the cell plate was placed in a FDSS 6000 plate reader (Hamamatsu Photonics, Middlesex, N.J.); baseline fluorescence readings were collected for 20 seconds. Next, 25 μl of agonist solution (3 μM glutamate, 3 μM glycine, and 1 mM Ca^2+ in HBSS) was added and the change in fluorescence was recorded for 3 minutes.
Results were calculated by comparing the effects of test compounds to that of the literature standard GluN2C/D PAM CIQ (100 uM). The increase in fluorescence in the presence of CIQ minus the increase induced by glutamate+glycine alone was set to 100%. Responses induced by compounds that were larger than gain the presence of the standard concentration of CIQ were greater than 100% and lesser responses were less than 100%.

[2] = target: T2, human GRIN1 (transcript variant NR1-3) and GRIN2D expressed in Xenopus oocytes (Homo sapiens, UniProt O15399); experiment: NR2D oocyte potentiation assay (two-electrode voltage clamp); assay type: cell-based; details: 10 uM test compound; glutamate and glycine 10 μM each; holding potential −40 mV
T2 construct: GenScript (GRIN2D synthesis) SC115601; host or cells: Xenopus oocytes injected with cRNA (1 GluN1 : 2 GluN2)
Procedure, shortened: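 Xenopus oocytes were defolliculated with collagenase, then injected with 50 nL of cRNA encoding human GluN1 (NR1-3 variant) and GluN2D mixed 1:2 and kept 72 h at 16° C. Two-electrode voltage clamp at −40 mV recorded currents; after 10 μM glutamate plus 10 μM glycine reached plateau, test compound was added until a new plateau formed.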

T2 sequence (O15399 28-1336, other chains not shown): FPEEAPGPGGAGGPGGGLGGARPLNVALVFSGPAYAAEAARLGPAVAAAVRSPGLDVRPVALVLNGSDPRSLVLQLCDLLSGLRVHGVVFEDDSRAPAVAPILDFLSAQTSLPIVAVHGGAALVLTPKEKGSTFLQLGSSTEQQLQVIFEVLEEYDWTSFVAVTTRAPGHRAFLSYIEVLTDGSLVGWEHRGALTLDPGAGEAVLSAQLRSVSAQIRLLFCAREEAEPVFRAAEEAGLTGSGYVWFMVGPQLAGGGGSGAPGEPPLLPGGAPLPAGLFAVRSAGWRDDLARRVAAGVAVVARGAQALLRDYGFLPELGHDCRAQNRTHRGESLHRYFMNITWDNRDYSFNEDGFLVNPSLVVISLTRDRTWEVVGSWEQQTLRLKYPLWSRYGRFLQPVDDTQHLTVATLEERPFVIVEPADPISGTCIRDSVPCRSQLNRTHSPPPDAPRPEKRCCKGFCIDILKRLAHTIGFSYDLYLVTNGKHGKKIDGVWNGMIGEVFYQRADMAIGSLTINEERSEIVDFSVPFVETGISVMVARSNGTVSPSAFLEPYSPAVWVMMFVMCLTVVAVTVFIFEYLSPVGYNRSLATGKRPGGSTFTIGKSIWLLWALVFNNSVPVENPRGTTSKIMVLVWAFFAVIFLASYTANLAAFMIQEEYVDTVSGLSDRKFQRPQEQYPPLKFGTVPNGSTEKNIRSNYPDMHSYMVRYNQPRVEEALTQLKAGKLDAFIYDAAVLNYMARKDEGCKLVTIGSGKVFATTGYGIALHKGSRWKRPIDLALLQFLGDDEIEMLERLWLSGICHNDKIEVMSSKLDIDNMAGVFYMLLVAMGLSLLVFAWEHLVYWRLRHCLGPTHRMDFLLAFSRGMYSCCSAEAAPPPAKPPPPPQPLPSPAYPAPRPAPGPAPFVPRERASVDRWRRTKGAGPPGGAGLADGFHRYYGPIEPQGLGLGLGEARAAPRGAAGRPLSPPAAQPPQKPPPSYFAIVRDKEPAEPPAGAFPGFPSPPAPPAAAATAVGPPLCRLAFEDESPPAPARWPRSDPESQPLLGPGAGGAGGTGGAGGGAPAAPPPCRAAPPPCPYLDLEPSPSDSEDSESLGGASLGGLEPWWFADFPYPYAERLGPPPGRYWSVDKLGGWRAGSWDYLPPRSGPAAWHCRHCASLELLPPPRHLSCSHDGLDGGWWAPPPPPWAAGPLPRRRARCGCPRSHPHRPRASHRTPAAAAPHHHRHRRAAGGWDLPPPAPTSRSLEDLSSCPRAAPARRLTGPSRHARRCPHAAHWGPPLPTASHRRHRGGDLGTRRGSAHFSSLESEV
T1 sequence (O15399 28-1336, other chains not shown): as above

| Compound | Emax [1] | activation at 10 µM [2] | NR2D Oocyte % Potentiation @ 10 uM [2] |
| --- | --- | --- | --- |
| CC(C)(C)c1ccc(-c2nc3n(/c(=N\C(=O)C(F)(F)F)c2C#N)CCCS3)cc1 [Example 43, (Z)—N-(8-(4-(tert-butyl)phenyl)-7-cyano-3,4-dihydro-2H,6H-pyrimido[2,1-b][1,3]thiazin-6-ylidene)-2,2,2-trifluoroacetamide] | 10 to 50% | 100 to 500% |  |
| C[C@H]1CSc2nc(-c3ccc(C(C)(C)C)nc3)c(C#N)c(=O)n2C1 [Example 44, (R)-8-(6-(tert-butyl)pyridin-3-yl)-3-methyl-6-oxo-3,4-dihydro-2H,6H-pyrimido[2,1-b][1,3]thiazine-7-carbonitrile] | 100 to 200% | 100 to 500% |  |
| C[C@@H]1CSc2nc(-c3ccc(C(C)(C)C)nc3)c(C#N)c(=O)n2C1 [Example 45, (S)-8-(6-(tert-butyl)pyridin-3-yl)-3-methyl-6-oxo-3,4-dihydro-2H,6H-pyrimido[2,1-b][1,3]thiazine-7-carbonitrile] | > 200% | > 1000% |  |
| N#Cc1c(-c2ccc(C(F)(F)F)nc2)nc2n(c1=O)CCCS2 [Example 48, 6-oxo-8-(6-(trifluoromethyl)pyridin-3-yl)-3,4-dihydro-2H,6H-pyrimido[2,1-b][1,3]thiazine-7-carbonitrile] | 10 to 50% | < 10% |  |
| CC1CSc2nc(-c3cnc(C(C)(C)C)nc3)c(C#N)c(=O)n2C1 (stereo not shown) [Example 49, 8-(2-(tert-butyl)pyrimidin-5-yl)-3-methyl-6-oxo-3,4-dihydro-2H,6H-pyrimido[2,1-b][1,3]thiazine-7-carbonitrile] | > 200% | > 1000% |  |
| CC1CCSc2nc(-c3ccc(C(C)(C)C)nc3)c(C#N)c(=O)n21 (stereo not shown) [Example 50, 8-(6-(tert-butyl)pyridin-3-yl)-4-methyl-6-oxo-3,4-dihydro-2H,6H-pyrimido[2,1-b][1,3]thiazine-7-carbonitrile] | 100 to 200% | 100 to 500% |  |
| CC1CSc2nc(-c3ccc(C(C)(C)C)nc3)c(C#N)c(=N)n2C1 (stereo not shown) [Example 63, 8-(6-(tert-butyl)pyridin-3-yl)-6-imino-3-methyl-3,4-dihydro-2H,6H-pyrimido[2,1-b][1,3]thiazine-7-carbonitrile] | > 200% | > 1000% |  |
| C[C@H]1CSc2nc(-c3ccc(C(C)(C)C)nc3)c(C#N)c(=N)n2C1 [Example 64, (R)-8-(6-(tert-butyl)pyridin-3-yl)-6-imino-3-methyl-3,4-dihydro-2H,6H-pyrimido[2,1-b][1,3]thiazine-7-carbonitrile] | 100 to 200% | 100 to 500% |  |
| C[C@@H]1CSc2nc(-c3ccc(C(C)(C)C)nc3)c(C#N)c(=N)n2C1 [Example 65, (S)-8-(6-(tert-butyl)pyridin-3-yl)-6-imino-3-methyl-3,4-dihydro-2H,6H-pyrimido[2,1-b][1,3]thiazine-7-carbonitrile] | > 200% | > 1000% |  |
| CC1CSc2nc(-c3ccc(N(C)C)nc3)c(C#N)c(=O)n2C1 (stereo not shown) [Example 67, 8-[6-(dimethylamino)pyridin-3-yl]-3-methyl-6-oxo-2H,3H,4H,6H-pyrimido[2,1-b][1,3]thiazine-7-carbonitrile] | 50 to 100% | 100 to 500% |  |
| CC(C)(C)c1ccc(-c2nc3n(c(=O)c2C#N)CCCS3)cn1 [Example 174, 8-(6-tert-butyl-3-pyridinyl)-3,4-dihydro-6-oxo-2H,6H-pyrimido[2,1-b][1,3]thiazine-7-carbonitrile] | 100 to 200% | 500 to 1000% |  |
| CC1CSc2nc(-c3ccc(C(C)(C)C)nc3)c(C#N)c(=O)n2C1 (stereo not shown) [Example 175, 8-(6-tert-butylpyridin-3-yl)-3-methyl-6-oxo-2H,3H,4H,6H-pyrimido[2,1-b][1,3]thiazine-7-carbonitrile] | 100 to 200% | > 1000% |  |

The remaining lines, values ahead:

| Emax [1] | activation at 10 µM [2] | NR2D Oocyte % Potentiation @ 10 uM [2] | Compound |
| --- | --- | --- | --- |
| 100 to 200% | 500 to 1000% |  | CC(C)(C)c1ncc(-c2nc3n(c(=O)c2C#N)CCCS3)cn1 [Example 176, 8-(2-tert-butylpyrimidin-5-yl)-6-oxo-2H,3H,4H,6H-pyrimido[2,1-b][1,3]thiazine-7-carbonitrile] |
| 100 to 200% | 10 to 100% |  | N#Cc1c(-c2cnc(C3CC3)nc2)nc2n(c1=O)CCCS2 [Example 178, 8-(2-cyclopropylpyrimidin-5-yl)-6-oxo-2H,3H,4H,6H-pyrimido[2,1-b][1,3]thiazine-7-carbonitrile] |
| 100 to 200% | 10 to 100% |  | CC(C)(C)c1cc(-c2nc3n(c(=O)c2C#N)CCCS3)ccn1 [Example 179, 8-(2-tert-butylpyridin-4-yl)-6-oxo-2H,3H,4H,6H-pyrimido[2,1-b][1,3]thiazine-7-carbonitrile] |
| 100 to 200% | 10 to 100% |  | N#Cc1c(-c2ccc(C3CC3)nc2)nc2n(c1=O)CCCS2 [Example 181, 8-(6-cyclopropylpyridin-3-yl)-6-oxo-2H,3H,4H,6H-pyrimido[2,1-b][1,3]thiazine-7-carbonitrile] |
| 100 to 200% | 10 to 100% |  | Cc1nc(C(C)(C)C)ccc1-c1nc2n(c(=O)c1C#N)CCCS2 [Example 182, 8-(6-tert-butyl-2-methylpyridin-3-yl)-6-oxo-2H,3H,4H,6H-pyrimido[2,1-b][1,3]thiazine-7-carbonitrile] |
| 100 to 200% | 10 to 100% |  | CC(C)(C)c1ccc(-c2nc3n(c(=O)c2C#N)CCCS3)nc1 [Example 183, 8-(5-tert-butylpyridin-2-yl)-6-oxo-2H,3H,4H,6H-pyrimido[2,1-b][1,3]thiazine-7-carbonitrile] |
| 100 to 200% | > 1000% |  | CC(C)(C)c1ccc(-c2nc3n(c(=O)c2C#N)CCCS3)cc1 [Example 184, 8-(4-tert-butylphenyl)-3,4-dihydro-6-oxo-2H,6H-pyrimido[2,1-b][1,3]thiazine-7-carbonitrile] |
| 10 to 50% | 10 to 100% |  | N#Cc1c(-c2ccc(C3CC3)cc2)nc2n(c1=O)CCCS2 [Example 189, 8-(4-cyclopropylphenyl)-6-oxo-2H,3H,4H,6H-pyrimido[2,1-b][1,3]thiazine-7-carbonitrile] |
| 10 to 50% | 10 to 100% |  | Cc1ccc(-c2ccc(-c3nc4n(c(=O)c3C#N)CCCS4)c(F)c2)cc1 [Example 197, 8-[2-fluoro-4-(4-methylphenyl)phenyl]-6-oxo-2H,3H,4H,6H-pyrimido[2,1-b][1,3]thiazine-7-carbonitrile] |
| 10 to 50% | 10 to 100% |  | CC(C)c1ccc(-c2ccc(-c3nc4n(c(=O)c3C#N)CCCS4)c(F)c2)cc1 [Example 198, 8-{2-fluoro-4[4-(propan-2-yl)phenyl]phenyl}-6-oxo-2H,3H,4H,6H-pyrimido[2,1-b][1,3]thiazine-7-carbonitrile] |
| 100 to 200% | > 1000% |  | CC1CSc2nc(-c3ccc(C(C)(C)C)cc3)c(C#N)c(=O)n2C1 (stereo not shown) [Example 199, 8-(4-tert-butylphenyl)-3,4-dihydro-3-methyl-6-oxo-2H,6H-pyrimido[2,1-b][1,3]thiazine-7-carbonitrile] |
| 50 to 100% | < 10% |  | CC(C)(C)c1ccc(-c2nc3n(c(=O)c2C#N)CC(O)CS3)cc1 (stereo not shown) [Example 200, 8-(4-tert-butylphenyl)-3,4-dihydro-3-hydroxy-6-oxo-2H,6H-pyrimido[2,1-b][1,3]thiazine-7-carbonitrile] |
| 100 to 200% | 10 to 100% |  | CC1CCSc2nc(-c3ccc(C(C)(C)C)cc3)c(C#N)c(=O)n21 (stereo not shown) [Example 201, 8-(4-tert-butylphenyl)-3,4-dihydro-4-methyl-6-oxo-2H,6H-pyrimido[2,1-b][1,3]thiazine-7-carbonitrile] |
| 10 to 50% |  | Inhibitor | CC(C)(C)c1ccc(-c2nc3n(c(=O)c2C#N)C(c2ccccc2)CCS3)cc1 (stereo not shown) [Example 202, 8-(4-tert-butylphenyl)-3,4-dihydro-4-phenyl-6-oxo-2H,6H-pyrimido[2,1-b][1,3]thiazine-7-carbonitrile] |
